From paper PMC9832530 (FASEB BioAdvances, 2022)

Molecular target: T1, drFtsZ (FtsZWT) (Deinococcus radiodurans, UniProt Q9RWN5)
T1 sequence (Q9RWN5 1-371): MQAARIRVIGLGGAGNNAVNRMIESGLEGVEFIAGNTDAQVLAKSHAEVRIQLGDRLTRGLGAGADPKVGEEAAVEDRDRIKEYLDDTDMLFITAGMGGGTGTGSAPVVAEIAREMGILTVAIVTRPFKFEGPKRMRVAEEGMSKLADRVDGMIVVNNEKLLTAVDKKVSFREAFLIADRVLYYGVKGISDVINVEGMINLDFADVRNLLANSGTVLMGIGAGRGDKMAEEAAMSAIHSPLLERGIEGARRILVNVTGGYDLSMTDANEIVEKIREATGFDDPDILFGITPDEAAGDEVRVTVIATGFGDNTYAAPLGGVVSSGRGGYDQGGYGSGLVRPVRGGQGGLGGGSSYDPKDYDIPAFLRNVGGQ
Assay: GTPase, [alpha-32P]-GTP to GDP by TLC
Format: biochemical
Settings: 20 mM Tris-HCl pH 7.5, 75 mM KCl, MgCl2, 37 °C, 20 min; labelled compound

Compound: Nc1nc2c(ncn2[C@@H]2O[C@H](COP(=O)(O)OP(=O)(O)OP(=O)(O)O)[C@@H](O)[C@H]2O)c(=O)[nH]1 [GTP]
- GTPase, [alpha-32P]-GTP to GDP by TLC: The GTPase activity of S235 and S335 mutants were estimated using thin‐layer chromatography
